Laboratory results: patent US12522585B2, “Method for preparing 2-chloro-n-(1-cyanocyclopropyl)-5-[2′-methyl-5′-(pentafluoroethyl)-4′-(trifluoromethyl)-2′h-1,3′-bipyrazol-4-yl]benzamide” ([…], priority 2020, dated 2026)

Assay: TGA of the product prepared in example 6
Type: physicochemical
Conditions: up to 150° C.
Text: The product prepared in example 6 was investigated by TGA.

## Cn1nc(C(F)(F)C(F)(F)F)c(C(F)(F)F)c1-n1cc(-c2ccc(Cl)c(C(=O)NC3(C#N)CC3)c2)cn1 [example 6, 2-chloro-N-(1-cyanocyclopropyl)-5-[2′-methyl-5′-(pentafluoroethyl)-4′-(trifluoromethyl)-2′H-1,3′-bipyrazol-4-yl]benzamide]
  loss of mass (TGA): no loss of mass
